Experimental data taken from patent US20120244079A1, “TRACEABLE RETINOID ACID FOR IMAGING, DISEASE PREVENTION AND THERAPY” (BAYLOR COLLEGE OF MEDICINE, priority 2009, published 2012).
Entries after “also recorded” stand apart in the source; their conditions may differ.

Columns and labels:
[1] = tested on: human nasopharyngeal cancer (CNE-2) cells; assay: Confocal microscopy cell binding/uptake; format: cell-based; conditions: 100 μm, 60 minutes at 37° C.
Procedure: (§1) The human colon (HT-29), nasal (CCL-30) and lung (A549) cancer cell lines were purchased from the American Type Culture Collection (ATCC, Manassas, Va.). Human osteosarcoma (F5M2, OS-9901, SOSP-S607, F4, CM319) and nasopharyngeal carcinoma cell lines (CNE-2) were generated in-house. The cells were cultured in Dulbecco's Modified Eagle Medium supplemented with high glucose and F12 nutrient (DMEM/F12, Invitrogen, Carlsbad, Calif.) with 10% fetal bovine serum (Hyclone, Logan, Utah) in a humidified incubator maintained at 37° C. with 5% CO2.
(§2) Cells were harvested, and the NIR-labeled retinoid agent or the free dye (100 μm) was added. The mixture was incubated for 60 minutes at 37° C. Cells were washed in PBS. Sytox Green in 95% ethanol was added, and cells were incubated for 15 minutes at 4° C. to fix them and stain their nuclei. Stained cells were then transferred to a slide and mounted for microscopic examination. Images were recorded by an Olympus confocal microscope. The microscope was equipped with an excitation (Ex) light source and emission (Em) filters to detect and separate the labeled retinoids (ex/em 785/810 nm) and cell nuclei (Ex/Em 488/510 nm) signals. Confocal image signals were recorded from one slice of a cell z-stack. Sytox green and NIR-labeled retinoid or NIR dye signals were pseudo-colored green (emission at 510 nm) and red (emission at 810 nm), respectively.
(§3) The uptake of NIR-labeled retinoid agent by human cancer cells was verified by confocal microscopy (FIG. 1A to 1H). […] The nuclear internalization was temperature-dependent (FIG. 1J and FIG. 1K). The signal intensity was stronger in cells incubated at 37° C. (FIG. 1I) than in those incubated at 4° C. (FIG. 1L) or the negative cells incubated at 37° C. (FIG. 1M, FIG. 1N, and FIG. 1O). These differences are statistically significant (FIG. 1P).

[2] = tested on: human osteosarcoma F4 cells; assay: Confocal microscopy cell binding/uptake; format: cell-based; conditions: 100 μm, 60 minutes at 37° C.
Procedure: as §1, §2, §3

[3] = tested on: human lung cancer (A549) cells; assay: Confocal microscopy cell binding/uptake; format: cell-based; conditions: 100 μm, 60 minutes at 37° C.
Procedure: as §1, §2, §3

[4] = tested on: human colon cancer (HT-29) cells; assay: Confocal microscopy cell binding/uptake; format: cell-based; conditions: 100 μm, 60 minutes at 37° C.
Procedure: as §1, §2, §3

[5] = tested on: human osteosarcoma OS-9901 cells; assay: Confocal microscopy cell binding/uptake; format: cell-based; conditions: 100 μm, 60 minutes at 37° C.
Procedure: as §1, §2, §3

[6] = tested on: human osteosarcoma F5M2 cells; assay: Confocal microscopy cell binding/uptake; format: cell-based; conditions: 100 μm, 60 minutes at 37° C.
Procedure: as §1, §2, §3

[7] = tested on: human osteosarcoma SOSP-9607 cells; assay: Confocal microscopy cell binding/uptake; format: cell-based; conditions: 100 μm, 60 minutes at 37° C.
Procedure: as §1, §2, §3

[8] = tested on: F4 osteosarcoma tumor xenograft; assay: In vivo NIR imaging, side-by-side with free dye; parameters: species or system athymic nude mice; conditions: for clearance from the body, time: following the injection
Procedure: (§4) Four- to six-week-old male athymic nude mice (18-22 g) were housed and fed sterilized pellet chow and provided sterilized water. Animals were maintained in a pathogen-free mouse colony. The facility is accredited by the American Association for Laboratory Animal Care, and all experiments were performed in accordance with the guidelines of the Institutional Animal Care and Use Committee. Tumor cells were harvested near confluence by incubating them with 0.05% trypsin-EDTA. Cells were pelleted by centrifugation at 130×g for five minutes and resuspended in sterile phosphate-buffered saline (PBS). Tumors were induced in animals by subcutaneous injection of approximately one million tumor cells into the hind leg region of the mice. A total of 75 mice were used in this study.
(§5) The NIR-labeled retinoid agent was intraveneously (i.v.) injected into the tumor-bearing mice at a dose of 10 nmol for imaging. The animals were imaged from 1 to 9 days after the injection using an In-Vivo Multispectral System FX, a tandem (SPECT/CT) single photon emission computed tomography (SPECT) and computed tomography (CT) system and imaged with a positron emission tomography (PET) system.
Regions of interest were quantified from the in vitro and in vivo data using ImageJ (National Institutes of Health, USA). Data were analyzed using one-way (analysis of variance) ANOVA or general linear model (GLM). Data comparisons were illustrated in notched box-and-whisker plots. These plots provide the minimum, 25th percentile, median (central line), mean (+), 75th percentile and maximum.
The tumor mass was located in the left hind region of the mouse (FIG. 2A). There was no calcification of the tumor mass (FIG. 2B). […] To eliminate the potential well-established enhanced permeability and retention (EPR) effect of the imaging results, a side-by-side imaging comparison was performed to study and to directly compare the free dye (FIG. 2E to FIG. 2I) and compound 3 (FIG. 2J to FIG. 2M). The same intensity scale was used in this analysis. […] Finally, the merged free dye, RGD and CT images show the only high vasculature signal in the vicinity of the tumor (FIG. 2I). In contrast, the merged compound 3, RGD and CT images show both vasculature and RA (compound 3) signal intensity increases in the tumor region (FIG. 2N, yellow). All of the data were further analyzed at the animal population level.

[9] = Systemic toxicity by bodyweight gain; format: in vivo, mice
Procedure: (§6) Tumor-bearing mice were divided into three groups for the dose acceleration study; they were injected with 0.03 mg, 0.06 mg, or 0.125 mg of the NIR-labeled retinoid agent that was equivalent to the non-labeled retinoid, respectively. The tumor-to-muscle ratio was calculated from the imaging data. The systemic toxicity was measured using control mice. The mice were treated with PBS (control), a low dose (0.1 mg/kg/week), or a dosage that was five times lower than that reported in published human clinical trials (0.6 mg/kg/week). The bodyweight was measured every other day, and the percentage gain in bodyweight was used as the toxicity indicator.
(§7) To test for a saturation effect of the target-specific biological agent, three groups of animal were injected with different doses of the retinoid agent. The tumor-to-muscle ratio was used to compare the dose response in the tumor. […] However, the higher dose was associated with a significant decrease in the gain of bodyweight (FIG. 7B).

human cancer cells = assay: Confocal microscopy: effect of temperature and signal localisation; format: cell-based
Procedure: as §2, §3
The negative cells also show the minimum signal intensity (FIG. 1M and FIG. 1N).

CM319 osteosarcoma cells = assay: Confocal microscopy cell binding/uptake; format: cell-based, human
Procedure: as §1, §2

tumor xenograft = assay: Dose acceleration response (tumor-to-muscle ratio); format: in vivo, mice; conditions: injection dose increased from 0.03 to 0.125 mg, p>0.5270
Procedure: as §6, §7

[10] = tested on: human colon, lung, nasal cancer, and neuroblastoma xenografts; assay: In vivo NIR imaging of other xenografts; parameters: species or system athymic nude mice; conditions: across all four tumor xenografts
Procedure: as §4, §5
To confirm the findings in other cancer cell types, the RA agent was tested in human colon (FIG. 4A), lung (FIG. 4B), nasal (FIG. 4C) cancer, and neuroblastoma (FIG. 4 D) xenografts. […]

[11] = tested on: human colon cancer xenograft; assay: Tumor-to-muscle and liver-to-tumor ratios over time; format: in vivo, athymic nude mice; conditions: for signal in the liver versus background/muscle level: 14 days post-injection, single 18.4 μg injection
Procedure: as §4
as §5, with “The animals were imaged from 1 to 9 days after the injection using an In-Vivo Multispectral” left out
[…] […] The imaging agent was initially concentrated in the liver after the injection, but it gradually redistributed from the liver to the tumor over time. […] The maximum TMR (2.7) was reached 6 days post-injection in some animals, after which it started to decrease.

[12] = 30 mg/day, stage I and II head and neck cancer patients; cited from earlier work

SMILES: CC1(C)C(=CC=C2CCCC(C=CC3=[N+](CCCCCC(=O)[O-])c4ccc(S(=O)(=O)[O-])cc4C3(C)C)=C2Oc2ccc(S(=O)(=O)[O-])cc2)N(CCCCS(=O)(=O)[O-])c2ccc(S(=O)(=O)[O-])cc21.[Na+].[Na+].[Na+].[Na+] [IRDye800CW, reference compound]
- binding to cells (NIR signal, confocal image) [1]: no detectable signal
- binding to cells (NIR signal, confocal image) [2]: no detectable signal
- binding to cells (NIR signal, confocal image) [3]: no detectable signal
- binding to cells (NIR signal, confocal image) [4]: no detectable signal
- binding to cells (NIR signal, confocal image) [5]: no detectable signal
- binding to cells (NIR signal, confocal image) [6]: no detectable signal
- binding to cells (NIR signal, confocal image) [7]: no detectable signal
- optical signal in the animal ([8]; after 24 hours): completely undetectable
- signal intensity (TBR), IRDye800CW group vs RA group ([8]; after 24 hours, P<0.0001): significantly lower
- clearance from the body, time [8]: 24 h
- clearance from the body, time ([8]; listed as free dye): ≤ 24 h

SMILES: CC1=C(/C=C/C(C)=C/C=C/C(C)=C/C(=O)NCCCCCCNC(=O)CCCCCN2/C(=C/C=C3\CCCC(/C=C/C4=[N+](CCCCS(=O)(=O)O)c5ccc(S(=O)(=O)O)cc5C4(C)C)=C3Oc3ccc(S(=O)(=O)O)cc3)C(C)(C)c3cc(S(=O)(=O)O)ccc32)C(C)(C)CCC1 [compound 3, RA-HN(CH2)6NH—IRdye 800]
- percentage of bodyweight gain vs untreated control and low dose group ([9]; high dose 0.6 mg/kg/week, p=0.0003 vs control, p=0.0001 vs low dose): significantly lower
- percentage of bodyweight gain vs control group ([9]; low dose 0.1 mg/kg/week, p=0.0519): no differences
- binding when incubated at 4° C. (human cancer cells; 4° C.): minimum binding
- signal intensity in cells incubated at 37° C. versus 4° C. or negative cells (human cancer cells; 37° C. vs 4° C., statistically significant, listed as NIR-labeled retinoid agent): stronger; also recorded: higher signal intensity was observed at 37 °C than at 4 °C
- localisation of retinoid signal in cells (human cancer cells; 37° C., confocal, listed as NIR-labeled retinoid agent): not only detected in the cytoplasm but also in the nuclei; also recorded: localizes to the cell membrane and cytoplasm
- binding to cells (CM319 osteosarcoma cells): strongly binds to all the tested human cancer cell lines except CM319 osteosarcoma cells
- tumor-to-muscle ratio, dose response (tumor xenograft; listed as imaging agent): no statistically significant difference
- tumor-to-muscle ratio, dose response (tumor xenograft; listed as retinoid agent): no significant difference
- tumor-to-background ratio [10]: 2.15 to 2.74
- liver-to-tumor ratio relative to tumor-to-muscle ratio ([11]; 1 day post-injection): almost twice as high
- signal in the liver versus background/muscle level ([11]; listed as NIR-labeled retinoid agent): still higher than the background level
- signal in the liver versus background/muscle level ([11]; listed as retinoid analog imaging agent): had not returned to the muscle level
- time at which liver-to-tumor and tumor-to-muscle ratios intersected ([11]; post-injection): 3 days
- maximum tumor-to-muscle ratio (TMR) ([11]; single injection 18.4 μg per 25 grams of bodyweight, some animals): 2.7
- binding to cells (NIR signal, confocal image) [1]: bound
- binding to cells (NIR signal, confocal image) [2]: bound
- binding to cells (NIR signal, confocal image) [3]: bound
- binding to cells (NIR signal, confocal image) [4]: bound
- binding to cells (NIR signal, confocal image) [5]: bound
- binding to cells (NIR signal, confocal image) [6]: bound
- binding to cells (NIR signal, confocal image) [7]: bound
- signal intensity in the liver and tumor ([8]; 72 hours post-injection): high signal intensity
- tumor-to-background ratio (TBR) ([8]; 72 hours post-injection, single animal): 2.76
- signal intensity (TBR), IRDye800CW group vs RA group ([8]; within the first 24 hours, P=0.6088): no statistically significant difference

SMILES: CC1=C(/C=C/C(C)=C/C=C/C(C)=C\C(=O)O)C(C)(C)CCC1 [retinoid, isotretinoin]
- patients developing adverse effects [12]: 49.7%
